These results are taken from PMC9212739 (Antiviral Research, 2022).

Several values for one entry are separate records, joined by “and”; a condition that tells them apart may be missing. Identical values can stand only once. Like-named read-outs stand apart in the source and are kept apart here.

A word on the EC50: it is the concentration at which the effect is half-maximal. A word on the CC50: it is the concentration at which the toxic effect on the cells reaches its halfway point. A high value points to lower toxicity to the cells. For orientation: IC50 means the concentration that gives 50% inhibition. By inhibition is commonly meant how much of the control response was suppressed.

Series [1] deals with SARS-CoV-2 in VeroE6 TMPRSS2 cells. Put plainly: microbe, parasite or virus in culture. Format: cell-based.
A further series can be described thus: in vitro. To be noted: african green monkey, veroe6 tmprss2 cells.
Another series deals with MACV ExoN (Mammarenavirus machupoense, UniProt P26578). Put plainly: biochemical. Also noted: species or system Machupo virus.
The test system of series [2] is LCMV, MACV and SARS-CoV-2 ExoN. Format: biochemical.
Series [3] concerns the target SARS-CoV-2 ExoN nsp14/nsp10 complex (Severe acute respiratory syndrome coronavirus 2, UniProt P0DTD1). Description: biochemical. To be noted: read-out: % inhibition of ExoN at 5 μM.
A further series has as its target LCMV ExoN (Mammarenavirus choriomeningitidis, UniProt P09992). Put plainly: biochemical. Set-up: species or system Lymphocytic Choriomeningitis virus.
A further series concerns LCMV minigenome. Format: cell-based.
Setting [4] is: Severe acute respiratory syndrome coronavirus 2, VeroE6/TMPRSS2.
The mark [5] stands for this setting: read-out: % inhibition of ExoN at 5 μM.

Sequence of MACV ExoN (P26578 355-564 limits assumed): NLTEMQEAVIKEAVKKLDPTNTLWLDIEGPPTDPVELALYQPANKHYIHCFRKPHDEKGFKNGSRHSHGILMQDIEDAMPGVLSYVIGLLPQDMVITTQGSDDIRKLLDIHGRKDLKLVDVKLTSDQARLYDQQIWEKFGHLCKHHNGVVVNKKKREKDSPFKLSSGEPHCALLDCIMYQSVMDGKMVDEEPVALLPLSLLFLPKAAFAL
Sequence of LCMV ExoN (P09992 357-558 limits assumed): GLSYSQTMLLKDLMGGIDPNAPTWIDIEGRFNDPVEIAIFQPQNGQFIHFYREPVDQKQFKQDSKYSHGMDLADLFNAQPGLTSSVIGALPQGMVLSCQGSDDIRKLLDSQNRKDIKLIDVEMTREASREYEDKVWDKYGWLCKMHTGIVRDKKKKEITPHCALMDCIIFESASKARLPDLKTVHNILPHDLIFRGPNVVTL

For `O=C(O)C1=CC(=C(c2ccc(O)c(C(=O)O)c2)c2ccc(O)c(C(=O)O)c2)C=CC1=O` [Compound 40, Aurintricarboxyclic acid], the EC50 was 27 µM in series [1] and 27.2 ± 20.7 µM in series [1] (setting [4]). In addition, the CC50 at 48 h in the series “in vitro” was > 50 µM. Besides, the half-inhibitory concentration (IC50) against MACV ExoN (IC50) is 5.57 µM and 5.6 µM; at LCMV ExoN (IC50) it was 7.05 µM and 7.1 µM. The inhibition at 5 µM at MACV ExoN (setting [5]) was 39%; in series [3], 23%; on LCMV ExoN (setting [5]), 52%. In series [2], the “% inhibition of ExoN at 20 μM, all ExoN” value amounted to 100%. For the same compound, in the series on LCMV minigenome, the “antiviral effect” value was “no antiviral effect”.

In turn, `CCC(CC)COC(=O)[C@H](C)N[P@](=O)(OC[C@H]1O[C@@](C#N)(c2ccc3c(N)ncnn23)[C@H](O)[C@@H]1O)Oc1ccccc1` [Remdesivir] returned an EC50 in series [1] (setting [4]) of 1.5 ± 1.1 µM.
